The text below walks through data of patent US8143424B2, “Thyroid like compounds” (Torrent Pharmaceuticals Ltd., priority 2007, dated 2012).

For series [1], the system named is C57BL6 mice fed High Fat Diet. The series can be described thus: Oxygen consumption (Oxymax indirect calorimeter) in High Fat Diet fed mice. The series is classed as in vivo. To be noted: Dose 11 μM/kg intraperitoneally, day 8, % change vs vehicle; for change in vivo at 11 µM, 11 µmol/kg: Mus musculus, ip, 192 h, read-out: increase in O2 cons. On the procedure: (§1) C57BL6 mice (14-18 weeks age), fed for 8-12 weeks with High Fat Diet (45% kcal fat) were used for the study. The mice were placed in individual housing for one week. The mice were then kept in oxymax cages for 48 h for acclimatization. Basal recordings of oxygen consumption and carbon dioxide production for each mouse were recorded with indirect open circuit calorimeter (Oxymax, Columbus Instruments, USA (Ling fu et al., Endocrinology (2004); 145 (6); 2591-3). On the basis of body weight and basal oxygen consumption, mice were randomized and divided into two groups. • I) Vehicle treated group • II) Test compound treated group
(§2) The mice were treated with vehicle and test compounds intraperitoneally for 7-15 days. On the day 8, Oxygen consumption was measured for individual mouse 30 min after the drug treatment and % change with respect to vehicle is calculated.

Series [2] relates to C57BL6 mice fed High Fat Diet. The series can be described thus: Heart weight in High Fat Diet fed mice. The series is classed as in vivo. The settings on record: Dose 11 μM/kg intraperitoneally, end of experiment. The method, then:
as §1, §2
(§3) During the experiment food consumption was monitored daily. At the end of the experiment the animals were scarified and the heart weights were recorded.

The test system of series [3] is C57BL6 mice fed High Fat Diet. The series is described as follows: Food consumption in High Fat Diet fed mice. The series is classed as in vivo. To be noted: Dose 11 μM/kg intraperitoneally, 7-15 days. The method, then: as §1, §2, §3
For another series, the target named is T1, THR α1 (Homo sapiens, UniProt P10827).
T1 construct: GAL4 (plasmid pGAL4); expressed in transfected cells; host or cells: COS7
T1 sequence (P10827 1-410 isoform P10827-2): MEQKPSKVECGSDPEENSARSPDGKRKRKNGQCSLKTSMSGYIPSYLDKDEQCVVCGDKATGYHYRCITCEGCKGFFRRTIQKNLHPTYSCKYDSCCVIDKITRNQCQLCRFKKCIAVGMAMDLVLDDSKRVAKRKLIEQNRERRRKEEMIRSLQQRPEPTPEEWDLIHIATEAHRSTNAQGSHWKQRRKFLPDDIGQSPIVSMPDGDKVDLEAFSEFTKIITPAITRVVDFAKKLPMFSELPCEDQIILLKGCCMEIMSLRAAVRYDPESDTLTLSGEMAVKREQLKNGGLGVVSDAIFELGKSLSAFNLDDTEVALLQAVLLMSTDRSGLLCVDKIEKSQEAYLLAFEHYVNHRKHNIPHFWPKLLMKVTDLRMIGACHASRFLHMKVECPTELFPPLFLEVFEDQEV
The series is described as follows: Thyroid α1 transactivation (TRE reporter, luciferase) in COS7 cells. Format: cell-based. The settings on record: Conc. 20 uM, 24 hours, vs vehicle control. On the procedure: (§4) Compounds of the present invention were tested for their effect on O2 consumption (metabolic effect), LDL cholesterol, glucose levels, insulin levels and food consumption (appetite stimulant) and also to assess transcriptional activity of thyroid hormone receptor by in vitro TRE (Thyroid receptor element) reporter assay for TRα1 and TRβ1.
(§5) COS7 cells were transiently transfected with pGAL4 […]/Thyroid α1 or pGAL4/Thyroid β1 and pLuc Pur. The cells were cotransfected with pLacZNorm for normalization of transfection efficiency. Transfected cells were then treated with different concentrations of compounds of present invention, vehicle for 24 hours.
(§6) Cells were the lysed and luciferase activity was monitored in all samples. Results were expressed as fold activation as compared to vehicle control.
(§7) Results: Thyroid(α1/β1) transactivation in COS7 cells.

For the next series, the target named is T2, THR β1 (Homo sapiens, UniProt P10828).
T2 construct: GAL4 (plasmid pGAL4); expressed in transfected cells; host or cells: COS7
T2 sequence (P10828 1-461): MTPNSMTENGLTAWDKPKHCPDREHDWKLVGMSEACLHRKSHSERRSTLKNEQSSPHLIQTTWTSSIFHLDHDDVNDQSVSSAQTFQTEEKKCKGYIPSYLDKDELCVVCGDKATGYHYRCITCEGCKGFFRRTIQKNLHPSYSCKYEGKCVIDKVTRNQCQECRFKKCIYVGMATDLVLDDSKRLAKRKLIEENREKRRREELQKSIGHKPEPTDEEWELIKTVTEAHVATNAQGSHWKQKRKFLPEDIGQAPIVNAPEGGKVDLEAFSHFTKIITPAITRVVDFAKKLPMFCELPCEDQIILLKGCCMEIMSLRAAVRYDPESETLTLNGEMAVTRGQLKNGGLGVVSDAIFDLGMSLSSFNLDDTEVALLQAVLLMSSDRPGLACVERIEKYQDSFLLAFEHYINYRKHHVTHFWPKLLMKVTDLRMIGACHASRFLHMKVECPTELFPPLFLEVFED
The series can be described thus: Thyroid β1 transactivation (TRE reporter, luciferase) in COS7 cells. To be noted: Conc. 20 uM, 24 hours, vs vehicle control. Format: cell-based. On the procedure: as §4, §5, §6, §7

With “3-[4-(7-Hydroxy-indan-4-yloxy)-3-thiophen-2-yl-pyrazol-1-yl]-propionic acid And 3-[4-(7-Hydroxy-indan-4-yloxy)-5-thiophen-2-yl-pyrazol-1-yl]-propionic acid [Compound 7]”, the “increase in O2 cons” value in series [1] is “** (** = Increase > 5%)”. In addition, the “increase in Heart weight with reference to vehicle” value (shortened to “increase in Heart weight”) in series [2] is on record as “No change”. Further, in series [3], the “increase in food consumption with reference to vehicle” value (“increase in food consumption” for short) is reported as “No change”.

“7-[1-(1H-Tetrazol-5-ylmethyl)-3-thiophen-2-yl-1H-pyrazol-4-yloxy]-indan-4-ol And 7-[1-(1H-Tetrazol-5-ylmethyl)-5-thiophen-2-yl-1H-pyrazol-4-yloxy]-indan-4-ol [Compound 8]”: the “increase in O2 cons” value in series [1] is on record as “** (** = Increase > 5%)”. Further, the “increase in Heart weight” value in series [2] is “No change”. Further, in series [3], the “increase in food consumption” value is recorded as “No change”. Moreover, the “α1 Fold Activation” value on THR α1 came out at 3 Fold. The “β1 Fold Activation” value at THR β1 was determined as 1 Fold.

As to `Cc1nn(CCC(=O)O)c(C)c1Oc1ccc(O)c2c1CCC2` [Compound 1, 3-[4-(7-Hydroxy-indan-4-yloxy)-3,5-dimethyl-pyrazol-1-yl]-propionic acid], in series [1], the change in vivo at 11 µM, 11 µmol/kg was < 5%. Also, in series [2], the “increase in Heart weight” value is given as “No change”. In series [3], the “increase in food consumption” value is listed as “No change”. Besides, on THR α1, the “α1 Fold Activation” value is on record as 1 Fold. For the same compound, on THR β1, the “β1 Fold Activation” value is 1 Fold.

In the case of `Cc1nn(CCC(=O)O)c(C)c1Cc1ccc2[nH]ccc2c1` [Compound 2, 3-[4-(1H-Indol-5-ylmethyl)-3,5-dimethyl-pyrazol-1-yl]-propionic acid], the change in vivo at 11 µM, 11 µmol/kg in series [1] is < 5%. The “increase in Heart weight” value in series [2] is “No change”. Moreover, the “increase in food consumption” value in series [3] is on record as “No change”. In addition, on THR α1, the “α1 Fold Activation” value came out at 1 Fold. Besides, the “β1 Fold Activation” value at THR β1 is listed as 1 Fold.

As for `Cc1nn(Cc2nnn[nH]2)c(C)c1Oc1ccc(O)c2c1CCC2` [Compound 3, 7-[3,5-Dimethyl-1-(1H-tetrazol-5-ylmethyl)-1H-pyrazol-4-yloxy]-indan-4-ol], the change in vivo at 11 µM, 11 µmol/kg in series [1] was > 5%. In addition, in series [2], the “increase in Heart weight” value is reported as “No change”. In addition, in series [3], the “increase in food consumption” value is “No change”. Moreover, the “α1 Fold Activation” value on THR α1 was 1 Fold. At THR β1, the “β1 Fold Activation” value is listed as 1 Fold.

With `Cc1nn(CC(=O)Nc2nnn[nH]2)c(C)c1Oc1ccc(O)c2c1CCC2` [Compound 6, 2-[4-(7-Hydroxy-indan-4-yloxy)-3,5-dimethyl-pyrazol-1-yl]-N-(1H-tetrazol-5-yl)-acetamide], the change in vivo at 11 µM, 11 µmol/kg in series [1] is < 5%. Further, in series [2], the “increase in Heart weight” value is “No change”. In addition, in series [3], the “increase in food consumption” value is recorded as “No change”.

On to `Cc1cc(Cc2c(C)nn(CCC(=O)O)c2C)c2c(c1O)CCC2` [Compound 9, 3-[4-(7-Hydroxy-6-methyl-indan-4-ylmethyl)-3,5-dimethyl-pyrazol-1-yl]-propionic acid], for which, in series [1], the change in vivo at 11 µM, 11 µmol/kg was > 5%. In addition, the “increase in Heart weight” value in series [2] is given as “No change”. Moreover, the “increase in food consumption” value in series [3] is given as “No change”. At THR α1, the “α1 Fold Activation” value is listed as 2.5 Fold. Moreover, the “β1 Fold Activation” value at THR β1 is on record as 2 Fold.

In the case of `COc1c(C)cc(Cc2c(C)nn(CCC(=O)O)c2C)c2c1CCC2` [Compound 14, 3-[4-(7-Methoxy-6-methyl-indan-4-ylmethyl)-3,5-dimethyl-pyrazol-1-yl]-propionic acid], the change in vivo at 11 µM, 11 µmol/kg in series [1] was < 5%. Also, the “increase in Heart weight” value in series [2] is listed as “No change”. In series [3], the “increase in food consumption” value is given as “No change”.

For `CCc1nn(CC(=O)O)c(CC)c1Cc1cc(C)c(O)c2c1CCC2` [Compound 19, [3,5-Diethyl-4-(7-hydroxy-6-methyl-indan-4-ylmethyl)-pyrazol-1-yl]-acetic acid], the change in vivo at 11 µM, 11 µmol/kg in series [1] was > 5%. In series [2], the “increase in Heart weight” value is on record as “No change”. Moreover, the “increase in food consumption” value in series [3] is “No change”.

For `CCc1nn(CCC(=O)O)c(CC)c1Cc1cc(C)c(O)c2c1CCC2` [Compound 20, 3-[3,5-Diethyl-4-(7-hydroxy-6-methyl-indan-4-ylmethyl)-pyrazol-1-yl]-propionic acid], the change in vivo at 11 µM, 11 µmol/kg in series [1] was > 5%. The “increase in Heart weight” value in series [2] was “No change”. In addition, the “increase in food consumption” value in series [3] is given as “No change”.
